Reference: PubChem BioAssay (NCI)
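Interpolation was linear, between the two tested concentrations surrounding the appropriate level; five concentrations were tested over 48 hours in 96-well plates. TGI: total growth inhibition.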

Experiments:
Assay in all cases: NCI-60 cell line screen, 48 h
786-0 renal = tested on: 786-0 renal
A549 NSCLC = tested on: A549 NSCLC
ACHN renal = tested on: ACHN renal
BT-549 breast = tested on: BT-549 breast
CAKI-1 renal = tested on: CAKI-1 renal
CCRF-CEM leukemia = tested on: CCRF-CEM leukemia
COLO 205 colon = tested on: COLO 205 colon
DU-145 prostate = tested on: DU-145 prostate
EKVX NSCLC = tested on: EKVX NSCLC
HCC-2998 colon = tested on: HCC-2998 colon
HCT-116 colon = tested on: HCT-116 colon
HCT-15 colon = tested on: HCT-15 colon
HL-60(TB) leukemia = tested on: HL-60(TB) leukemia
HOP-62 NSCLC = tested on: HOP-62 NSCLC
HS 578T breast = tested on: HS 578T breast
HT29 colon = tested on: HT29 colon
IGROV1 ovarian = tested on: IGROV1 ovarian
K-562 leukemia = tested on: K-562 leukemia
KM12 colon = tested on: KM12 colon
LOX IMVI melanoma = tested on: LOX IMVI melanoma
M14 melanoma = tested on: M14 melanoma
MALME-3M melanoma = tested on: MALME-3M melanoma
MCF7 breast = tested on: MCF7 breast
MDA-MB-231 breast = tested on: MDA-MB-231 breast
MDA-N = tested on: MDA-N
MOLT-4 leukemia = tested on: MOLT-4 leukemia
NCI-H226 lung = tested on: NCI-H226 lung
NCI-H23 lung = tested on: NCI-H23 lung
NCI-H460 lung = tested on: NCI-H460 lung
NCI-H522 lung = tested on: NCI-H522 lung
NCI/ADR-RES ovarian = tested on: NCI/ADR-RES ovarian
OVCAR-4 ovarian = tested on: OVCAR-4 ovarian
OVCAR-5 ovarian = tested on: OVCAR-5 ovarian
OVCAR-8 ovarian = tested on: OVCAR-8 ovarian
PC-3 prostate = tested on: PC-3 prostate
RXF 393 renal = tested on: RXF 393 renal
SF-268 CNS = tested on: SF-268 CNS
SF-295 CNS = tested on: SF-295 CNS
SF-539 CNS = tested on: SF-539 CNS
SK-MEL-2 melanoma = tested on: SK-MEL-2 melanoma
SK-MEL-28 melanoma = tested on: SK-MEL-28 melanoma
SK-MEL-5 melanoma = tested on: SK-MEL-5 melanoma
SK-OV-3 ovarian = tested on: SK-OV-3 ovarian
SN12C renal = tested on: SN12C renal
SNB-19 CNS = tested on: SNB-19 CNS
SNB-75 CNS = tested on: SNB-75 CNS
SR leukemia = tested on: SR leukemia
SW-620 colon = tested on: SW-620 colon
T-47D breast = tested on: T-47D breast
TK-10 renal = tested on: TK-10 renal
U251 CNS = tested on: U251 CNS
UACC-257 melanoma = tested on: UACC-257 melanoma
UACC-62 melanoma = tested on: UACC-62 melanoma
UO-31 renal = tested on: UO-31 renal
A498 renal = tested on: A498 renal
HOP-92 NSCLC = tested on: HOP-92 NSCLC
MDA-MB-435 = tested on: MDA-MB-435
OVCAR-3 ovarian = tested on: OVCAR-3 ovarian
RPMI-8226 leukemia = tested on: RPMI-8226 leukemia

## CC1(C)CC(=O)C(Cc2ccccc2)(Cc2ccccc2)C(=O)C1
786-0 renal
  TGI: > 100 µM
A549 NSCLC
  TGI: > 100 µM
ACHN renal
  TGI: > 100 µM
BT-549 breast
  TGI: > 100 µM
CAKI-1 renal
  TGI: > 100 µM
CCRF-CEM leukemia
  TGI: > 100 µM
COLO 205 colon
  TGI: > 100 µM
DU-145 prostate
  TGI: > 100 µM
EKVX NSCLC
  TGI: > 100 µM
HCC-2998 colon
  TGI: > 100 µM
HCT-116 colon
  TGI: > 100 µM
HCT-15 colon
  TGI: > 100 µM
HL-60(TB) leukemia
  TGI: > 100 µM
HOP-62 NSCLC
  TGI: > 100 µM
HS 578T breast
  TGI: > 100 µM
HT29 colon
  TGI: > 100 µM
IGROV1 ovarian
  TGI: > 100 µM
K-562 leukemia
  TGI: > 100 µM
KM12 colon
  TGI: > 100 µM
LOX IMVI melanoma
  TGI: > 100 µM
M14 melanoma
  TGI: > 100 µM
MALME-3M melanoma
  TGI: > 100 µM
MCF7 breast
  TGI: > 100 µM
MDA-MB-231 breast
  TGI: > 100 µM
MDA-N
  TGI: > 100 µM
MOLT-4 leukemia
  TGI: > 100 µM
NCI-H226 lung
  TGI: > 100 µM
NCI-H23 lung
  TGI: > 100 µM
NCI-H460 lung
  TGI: > 100 µM
NCI-H522 lung
  TGI: > 100 µM
NCI/ADR-RES ovarian
  TGI: > 100 µM
OVCAR-4 ovarian
  TGI: > 100 µM
OVCAR-5 ovarian
  TGI: > 100 µM
OVCAR-8 ovarian
  TGI: > 100 µM
PC-3 prostate
  TGI: > 100 µM
RXF 393 renal
  TGI: > 100 µM
SF-268 CNS
  TGI: > 100 µM
SF-295 CNS
  TGI: > 100 µM
SF-539 CNS
  TGI: > 100 µM
SK-MEL-2 melanoma
  TGI: > 100 µM
SK-MEL-28 melanoma
  TGI: > 100 µM
SK-MEL-5 melanoma
  TGI: > 100 µM
SK-OV-3 ovarian
  TGI: > 100 µM
SN12C renal
  TGI: > 100 µM
SNB-19 CNS
  TGI: > 100 µM
SNB-75 CNS
  TGI: > 100 µM
SR leukemia
  TGI: > 100 µM
SW-620 colon
  TGI: > 100 µM
T-47D breast
  TGI: > 100 µM
TK-10 renal
  TGI: > 100 µM
U251 CNS
  TGI: > 100 µM
UACC-257 melanoma
  TGI: > 100 µM
UACC-62 melanoma
  TGI: > 100 µM
UO-31 renal
  TGI: > 100 µM

## Cc1ccc(S(=O)(=O)NC(CCC(=O)NN)C(=O)NN)cc1 (centres undefined)
786-0 renal
  TGI: > 100 µM
A498 renal
  TGI: > 100 µM
A549 NSCLC
  TGI: > 100 µM
ACHN renal
  TGI: > 100 µM
BT-549 breast
  TGI: > 100 µM
CAKI-1 renal
  TGI: > 100 µM
CCRF-CEM leukemia
  TGI: > 100 µM
COLO 205 colon
  TGI: > 100 µM
EKVX NSCLC
  TGI: > 100 µM
HCT-116 colon
  TGI: > 100 µM
HCT-15 colon
  TGI: > 100 µM
HL-60(TB) leukemia
  TGI: > 100 µM
HOP-62 NSCLC
  TGI: > 100 µM
HOP-92 NSCLC
  TGI: > 100 µM
HS 578T breast
  TGI: > 100 µM
HT29 colon
  TGI: > 100 µM
IGROV1 ovarian
  TGI: > 100 µM
K-562 leukemia
  TGI: > 100 µM
KM12 colon
  TGI: > 100 µM
LOX IMVI melanoma
  TGI: > 100 µM
M14 melanoma
  TGI: > 100 µM
MALME-3M melanoma
  TGI: > 100 µM
MCF7 breast
  TGI: > 100 µM
MDA-MB-231 breast
  TGI: > 100 µM
MDA-MB-435
  TGI: > 100 µM
MDA-N
  TGI: > 100 µM
MOLT-4 leukemia
  TGI: > 100 µM
NCI-H226 lung
  TGI: > 100 µM
NCI-H23 lung
  TGI: > 100 µM
NCI-H460 lung
  TGI: 21.6 µM
NCI-H522 lung
  TGI: > 100 µM
NCI/ADR-RES ovarian
  TGI: > 100 µM
OVCAR-3 ovarian
  TGI: > 100 µM
OVCAR-4 ovarian
  TGI: > 100 µM
OVCAR-5 ovarian
  TGI: > 100 µM
OVCAR-8 ovarian
  TGI: > 100 µM
PC-3 prostate
  TGI: > 100 µM
RPMI-8226 leukemia
  TGI: > 100 µM
RXF 393 renal
  TGI: > 100 µM
SF-268 CNS
  TGI: > 100 µM
SF-295 CNS
  TGI: > 100 µM
SF-539 CNS
  TGI: > 100 µM
SK-MEL-2 melanoma
  TGI: > 100 µM
SK-MEL-5 melanoma
  TGI: > 100 µM
SK-OV-3 ovarian
  TGI: > 100 µM
SNB-19 CNS
  TGI: > 100 µM
SNB-75 CNS
  TGI: > 100 µM
SR leukemia
  TGI: > 100 µM
SW-620 colon
  TGI: > 100 µM
T-47D breast
  TGI: > 100 µM
TK-10 renal
  TGI: > 100 µM
U251 CNS
  TGI: > 100 µM
UACC-257 melanoma
  TGI: > 100 µM
UACC-62 melanoma
  TGI: > 100 µM
UO-31 renal
  TGI: > 100 µM

## COc1ccccc1N1C(=O)C2C3c4ccccc4C(OC(C)=O)(c4ccccc43)C2C1=O (centres undefined)
786-0 renal
  TGI: > 100 µM
A498 renal
  TGI: > 100 µM
A549 NSCLC
  TGI: > 100 µM
ACHN renal
  TGI: > 100 µM
BT-549 breast
  TGI: > 100 µM
CAKI-1 renal
  TGI: > 100 µM
CCRF-CEM leukemia
  TGI: > 100 µM
COLO 205 colon
  TGI: > 100 µM
DU-145 prostate
  TGI: > 100 µM
EKVX NSCLC
  TGI: > 100 µM
HCC-2998 colon
  TGI: > 100 µM
HCT-116 colon
  TGI: > 100 µM
HCT-15 colon
  TGI: > 100 µM
HL-60(TB) leukemia
  TGI: > 100 µM
HOP-62 NSCLC
  TGI: > 100 µM
HS 578T breast
  TGI: 52.1 µM
HT29 colon
  TGI: > 100 µM
IGROV1 ovarian
  TGI: > 100 µM
K-562 leukemia
  TGI: > 100 µM
KM12 colon
  TGI: > 100 µM
LOX IMVI melanoma
  TGI: > 100 µM
M14 melanoma
  TGI: > 100 µM
MALME-3M melanoma
  TGI: > 100 µM
MCF7 breast
  TGI: > 100 µM
MDA-MB-231 breast
  TGI: > 100 µM
MDA-N
  TGI: > 100 µM
MOLT-4 leukemia
  TGI: > 100 µM
NCI-H226 lung
  TGI: > 100 µM
NCI-H23 lung
  TGI: > 100 µM
NCI-H460 lung
  TGI: > 100 µM
NCI/ADR-RES ovarian
  TGI: > 100 µM
OVCAR-3 ovarian
  TGI: > 100 µM
OVCAR-4 ovarian
  TGI: > 100 µM
OVCAR-5 ovarian
  TGI: > 100 µM
OVCAR-8 ovarian
  TGI: > 100 µM
PC-3 prostate
  TGI: > 100 µM
RPMI-8226 leukemia
  TGI: > 100 µM
RXF 393 renal
  TGI: > 100 µM
SF-268 CNS
  TGI: > 100 µM
SF-295 CNS
  TGI: > 100 µM
SF-539 CNS
  TGI: > 100 µM
SK-MEL-28 melanoma
  TGI: > 100 µM
SK-MEL-5 melanoma
  TGI: > 100 µM
SK-OV-3 ovarian
  TGI: > 100 µM
SN12C renal
  TGI: > 100 µM
SNB-19 CNS
  TGI: > 100 µM
SNB-75 CNS
  TGI: 38.8 µM
SR leukemia
  TGI: > 100 µM
SW-620 colon
  TGI: > 100 µM
T-47D breast
  TGI: > 100 µM
TK-10 renal
  TGI: > 100 µM
U251 CNS
  TGI: > 100 µM
UACC-257 melanoma
  TGI: > 100 µM
UACC-62 melanoma
  TGI: > 100 µM
UO-31 renal
  TGI: > 100 µM
